According to patent US7365096B2, “Methods for selectively inhibiting Janus tyrosine kinase 3 (Jak3)” (Board of Regents, The University of Texas System, priority 2002, dated 2008):
Entries after “also recorded” stand apart in the source; their conditions may differ.

What was measured:
[1] = Kidney function and lipid metabolism in rats on low-salt diet (FIGS. 11A-F); format: in vivo, rat; conditions: 160 mg/kg oral gavage, 14 day therapy
Fyn = Fyn (Homo sapiens, UniProt P06241); assay: Tyrosine phosphorylation of activated Fyn in YT cells; format: cell-based; set-up: Cellular extracts were immunoprecipitated with anti-Fyn or anti-Lck antibodies; endogenous in cells; host or cells: YT cells; conditions: 1-100 μM, 2 hours
Fyn, sequence (P06241 whole entry): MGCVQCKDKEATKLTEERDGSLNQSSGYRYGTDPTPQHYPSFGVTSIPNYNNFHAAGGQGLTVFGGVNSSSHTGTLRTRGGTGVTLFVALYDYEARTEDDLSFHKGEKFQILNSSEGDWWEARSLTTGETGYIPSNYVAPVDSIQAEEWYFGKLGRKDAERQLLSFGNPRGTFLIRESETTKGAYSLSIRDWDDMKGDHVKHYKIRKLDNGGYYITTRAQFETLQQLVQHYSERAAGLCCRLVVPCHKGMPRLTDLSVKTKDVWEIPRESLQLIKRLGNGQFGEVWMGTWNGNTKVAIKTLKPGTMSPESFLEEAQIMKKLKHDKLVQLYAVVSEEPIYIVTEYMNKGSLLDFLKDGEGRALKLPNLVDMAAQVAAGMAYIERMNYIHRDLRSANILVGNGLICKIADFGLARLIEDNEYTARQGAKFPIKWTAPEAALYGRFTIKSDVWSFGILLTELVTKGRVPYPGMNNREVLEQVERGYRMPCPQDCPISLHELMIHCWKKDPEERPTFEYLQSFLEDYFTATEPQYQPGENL

Jak3 = target: T1, Jak3 (Homo sapiens, UniProt P52333); assay: IL-2 activated Jak3 tyrosine phosphorylation in YT cells (Western blot); format: cell-based; set-up: endogenous in cells; host or cells: human YT cells; conditions: 1-100 μM, 2 hours, 100 nM IL-2
T1 sequence (P52333 1-1124): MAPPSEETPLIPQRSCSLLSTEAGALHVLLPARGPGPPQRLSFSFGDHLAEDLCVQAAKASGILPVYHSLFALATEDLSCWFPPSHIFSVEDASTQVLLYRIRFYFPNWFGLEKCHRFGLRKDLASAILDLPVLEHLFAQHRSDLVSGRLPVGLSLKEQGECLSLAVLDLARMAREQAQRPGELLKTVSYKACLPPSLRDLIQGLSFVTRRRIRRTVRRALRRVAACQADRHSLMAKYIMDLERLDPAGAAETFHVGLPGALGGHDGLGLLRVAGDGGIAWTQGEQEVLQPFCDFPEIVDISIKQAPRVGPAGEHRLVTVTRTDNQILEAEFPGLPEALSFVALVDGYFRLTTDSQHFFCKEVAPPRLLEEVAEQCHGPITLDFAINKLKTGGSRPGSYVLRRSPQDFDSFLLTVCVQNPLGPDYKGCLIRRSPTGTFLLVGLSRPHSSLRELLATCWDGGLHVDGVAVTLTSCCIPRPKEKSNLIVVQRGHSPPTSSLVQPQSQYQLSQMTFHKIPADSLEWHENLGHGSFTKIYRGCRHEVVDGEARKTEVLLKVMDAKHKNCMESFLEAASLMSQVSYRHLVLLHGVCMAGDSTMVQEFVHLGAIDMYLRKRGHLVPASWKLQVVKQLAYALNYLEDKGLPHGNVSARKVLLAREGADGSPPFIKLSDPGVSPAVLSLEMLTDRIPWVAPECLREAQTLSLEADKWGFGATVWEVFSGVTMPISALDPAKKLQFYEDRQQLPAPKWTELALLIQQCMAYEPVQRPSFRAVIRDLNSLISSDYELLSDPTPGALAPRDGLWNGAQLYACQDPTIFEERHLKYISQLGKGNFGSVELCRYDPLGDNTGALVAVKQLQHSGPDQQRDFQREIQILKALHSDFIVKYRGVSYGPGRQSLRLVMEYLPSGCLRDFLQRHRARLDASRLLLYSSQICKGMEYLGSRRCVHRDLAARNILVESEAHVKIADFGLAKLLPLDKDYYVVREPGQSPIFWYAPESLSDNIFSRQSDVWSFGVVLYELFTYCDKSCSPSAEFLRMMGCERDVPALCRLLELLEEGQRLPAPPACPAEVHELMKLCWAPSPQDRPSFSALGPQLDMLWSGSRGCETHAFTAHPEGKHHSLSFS
Procedure: (§1) Solubilization of membrane proteins, immunoprecipitation, and Western blot analysis. Frozen cell pellets were thawed on ice and solubilized in 1% TX-100 lysis buffer (10^8 cells/ml) and clarified by centrifugation, as previously described.^16 For human T-cells, supernates were incubated rotating end over end for 2 hours at 4° C. with either 5 μl/ml polyclonal rabbit antisera raised against peptides derived from the unique COOH-termini of Jak3 (amino acid [a.a.] 1104-1124), carboxyl termini of human Stat5a (a.a. 775-794) or Stat5b (a.a. 777-787).^26 Ab and immunoprecipitated proteins were captured by incubation for 30 minutes with Protein A-Sepharose beads (Pharmacia, Piscataway, N.J.), sedimented for purification, and eluted by boiling in 2×SDS-sample buffer (20% Glycerol, 10% 2-Mercaptoethanol, 4.6% SDS, 0.004% Bromophenol blue in 0.125 M Tris pH 6.8) for 4 minutes. For phosphoMapk assays, approximately 25 μg of total cell lysate was dissociated in SDS-sample buffer and separated on 10% (all others on 7.5%) SDS-PAGE under reducing conditions. […]

p44/42 Erk1/2 = assay: IL-2-mediated p44/42 Erk1/2 phosphorylation in PHA-activated T cells; format: cell-based; conditions: human T-cells, 2 hours drug
Procedure: as §1

## CN(C)CC1CCCCCCCCCC(CN(C)C)C1=O (mixture of isomers) [649641P (NC1153)]
[1]
  nephrotoxicity and lipid metabolism (serum creatinine, clearance, cholesterol, triglycerides, LDL, HDL): is not nephrotoxic and does not affect lipid metabolism
Fyn
  activity (tyrosine phosphorylation) of Fyn: no effect; also recorded: does not block the activity; also recorded: did not inhibit
Jak3
  tyrosine phosphorylation of Jak3: inhibited in a dose-dependent fashion; also recorded: inhibited tyrosine phosphorylation
p44/42 Erk1/2
  IL2-mediated Erk1/2 phosphorylation / activation: blocks IL2-mediated Erk1/2 activation; also recorded: inhibited tyrosine phosphorylation
